Data set [1] is described as follows: Drug solubility in different release media (PBS with Tween 80 or SDS). Format: physicochemical. Conditions: for solubility at 48 h: release media (PBS with Tween 80 or SDS), 37 °C, pH 7.4, aqueous with cosolvent or surfactant or cyclodextrin, thermodynamic from solid. How it is done:
Mikkelsen, L. M., Enzyme solubility in liquid detergent and use of detergent composition. […] Crotts, G.; Park, T. G. Protein delivery from poly(lactic-co-glycolic acid) biodegradable microspheres: Release kinetics and stability issues. […] FDA.
The solutions were centrifuged at 8000 rpm for 10 minutes, and a 1 ml aliquot was withdrawn, filtered through a 0.45 μm nylon membrane, and analyzed by HPLC.

Data set [2] can be described thus: logP (octanol-water partition) by shake tube method. Format: physicochemical. Conditions: for logP: read-out: Calculated LogP.
Data set [3] has as its system L929 mouse fibroblast cells.
Method: Cytotoxicity evaluation: CPs were incubated in culture media at a surface area to volume ratio of 1.25 cm^2/mL for 48 h. […] The L929 fibroblast cells were cultured and routinely maintained in Dulbecco's modified Eagle's medium (DMEM) supplemented with 10% fetal bovine serum (FBS) and 1% penicillin-streptomycin. The cells were grown in a monolayer in tissue culture flasks incubated at 37° C. and 5% CO2 at 90% relative humidity. Cells were counted and seeded in 96-well plates at a density of 2000 cells/well, which was determined to be the optimum cell density. After 24 h incubation, growth media was aspirated and replaced with either 150 μL CPs extracts at a surface area to volume ratio of 1.25 cm^2/mL or the same volume of extraction media that had been serially diluted to the above concentrations. Following 24, 48, and 72 h incubation periods, cell viability was evaluated using the MTS assay. Specifically, the extraction media was aspirated and replaced with 200 μL of fresh media followed by 20 μL of MTS reagent, and the cells were incubated at 37° C. for 1.5 h. Cell viability was measured by optical absorbance at 2=490 nm using a Cytation™ 5 Cell Imaging Multi-Mode Reader (BioTek, Vermont). […]
The cytotoxicities of the cross-linked matrices were evaluated in L929 mouse fibroblast cells using the extraction dilution method (FIG. 16).
Data set [4] can be described thus: In vitro drug release from cross-linked matrices (CPs), sample-and-separate, with mathematical modeling (Fick diffusion). Format: physicochemical. Conditions: after 35 days; embodiment statement. Here is the method: Evaluation of in vitro drug release: impact of the nature of the drug, polymer and release media: In the in vitro release studies the impact of a number of variables was evaluated including nature of the drug, compatibility between the drug and the polymer matrix, degree of crystallinity of the matrix, M.W. of the copolymer, cross-linking density and the composition of the release media. The commonly used, sample-and-separate method was employed to evaluate drug release from the cross-linked matrices. D'Souza, S. S.; DeLuca, P. P. Methods to Assess in vitro Drug Release from Injectable Polymeric Particulate Systems. Pharmaceutical Research 2006, 23, 3, 460-474.
The Peppas-Sahlin model, where diffusion and polymer relaxation are known to be the underlying drivers of drug release provided the best fit in terms of R^2adjusted (FIGS. 8A and 8C) For cylindrical shaped matrices, Fickian diffusion is considered to be operative when the ratio of diameter to thickness (n or m) of the matrix is equal to or less than 0.45. If the value is […], the drug release mechanism is considered non-Fickian; whereas, if n is 0.89 drug release is considered to be case II transport. Herein, the dimension and the geometry of the matrices evaluated have a value of 0.78<n<0.80. […]
Protocols for drug analysis by HPLC and cytotoxicity evaluation of the cross-linked matrices: The drug release was analyzed by reverse phase HPLC using an Agilent 1200 HPLC system with Agilent ChemStation software, an XDB C18 column (150×4.6 mm i.d+guard column) and UV detection. […] Drug concentrations were quantified using calibration curves using standards that ranged in concentration from 1 to 100 μg/ml (0.9986≤R^2≤1).
The CPs were incubated at 37° C. under constant stirring and at pre-determined time points, a 1 ml aliquout was removed and replaced with 1 mL of fresh media and the samples were immediately frozen at −20° C. for storage prior to HPLC analysis. […] The drug was reconstituted in 1 ml of the HPLC mobile phase and analyzed to correct the DLC and release curves. […]

A short description of data set [5]: In vitro drug release from microparticles. Format: physicochemical. The source says: There is no significant difference with Mesh, NaCl, and EtOH for release rate. Drug X loaded MPs show insufficient washing (high t=0) and burst release in a day.
Method: We will use a dialysis bag to properly change release media without loss of microparticle. This will prevent accumulation of Drug X degradation over time and allow more accurate release analysis. We will examine release with Drug X-loaded microparticle in different media (i.e. only PBS at pH 7.5).
(§1) Method: Drug X-loaded microparticle in release media will be taken after 1 hrs and utilized to extract residue Drug X from microparticle.

Data set [6] is described as follows: Solubility of Drug X in organic solvents and water. Format: physicochemical.
In a further data set the test system is blood plasma protein. The settings on record: cited from earlier work.
The conditions of data set [7]: cited from earlier work.
The nature of data set [8]: Extraction and recovery of Drug X from discs and microparticles (stability in polymer matrix). Format: physicochemical. How it is done:
In Table 53, a study was conducted in which a Drug X-loaded disc was placed in 10 mL of dichloromethane (DCM) for 8 hr at room temperature to extract Drug X, and DCM was removed using a rotary evaporator at 25° C. This extraction process was repeated two times. The extracted drug dissolved in a acetonitrile (ACN) was filtered using 0.45 μm a nylon membrane and measured by HPLC for extraction efficiency.
as §1
We took out a disc after 2 weeks of release and freeze fried it. Then, the residual Drug X remaining in discs was extracted using dichloromethane to confirm Drug X stability in the disc.

For data set [9] the following is noted: pure PBS pH 7.4; cited from earlier work.

Converted amounts (≈) assume the structure as drawn. Some results are limits rather than exact numbers.

These results are taken from patent US20240368351A1, “FACTORS CONTROLLING DRUG RELEASE IN CROSS-LINKED POLY(VALEROLACTONE) BASED MATRICES” (Pendant Biosciences, Inc., priority 2019, published 2024).

Usually solubility stands for the dissolved amount per volume that the medium holds. The low end stands for little dissolved substance, the high end for much dissolved substance. Broadly, the logP is the decadic logarithm of the partition coefficient of the neutral form, usually between octanol and water. As usually defined, the Log P is the decadic logarithm of the partition coefficient of the neutral form, usually between octanol and water. Usually pKa stands for the pH at which an ionisable group is half protonated.

In turn, `COc1cc(/C=C/C(=O)CC(=O)/C=C/c2ccc(O)c(OC)c2)ccc1O` [Curcumin, curcumin] came in with a solubility at 48 h in data set [1] of 45.6 ± 1.05 µg/mL (≈ 124 µM). The “Calculated LogP” value in [2] is 3.
On to high density polyethylene [HDPE], for which, in data set [3], the “decrease in cell viability relative to the untreated control” value is on record as “approximately 66%”.
Take `CC(=O)O[C@H]1C(=O)[C@@]2(C)[C@H]([C@H](OC(=O)c3ccccc3)[C@]3(O)C[C@H](OC(=O)[C@H](O)[C@@H](NC(=O)c4ccccc4)c4ccccc4)C(C)=C1C3(C)C)[C@]1(OC(C)=O)CO[C@@H]1C[C@@H]2O` [Paclitaxel, paclitaxel]: in data set [1] (PBS), the “solubility, times greater in 0.5% SDS than in 0.1% SDS” value worked out at 10 times and the “solubility, times greater in 0.5% SDS than in 0.1% Tween 80” value came to 50 times. Further, the concentration in solution in data set [1] (solubility at 48 h) was 106 ± 0.57 µg/mL (≈ 124 µM). For the same compound, the “cumulative release from the drug-loaded crosslinked copolymer” value in data set [4] was “about 58 wt %”. Also, the logP in [2] was 2.7.
As for `CC(C)OC(=O)[C@H](C)N[P@](=O)(CO[C@H](C)Cn1cnc2c(N)ncnc21)Oc1ccccc1` [Drug X], in data set [5], the “time within which most of Drug X is released from MP” value was not above 1 h. Moreover, the “Drug X remained inside the MP after extraction” value in data set [5] (after 1 hr release) is listed as “around 100 μg”. Besides, the “Solubility in EtOH/DMSO (50/50)” value in [6] (5 mg per 100 mL or μL) was “Soluble, and”. Moreover, in data set [6] (5 mg per 200 mL or μL), the “Solubility in DMSO/Water (50/50)” value is given as “Insoluble” and the “Solubility in Water” value was “Insoluble”. The “bound to blood plasma protein” value in the data set on blood plasma protein is 80%. Moreover, in data set [7], the lipophilicity (Log P) is 1.6, the Water solubility entry is on record as “(4.86 mg/mL)”, the “Water solubility (words)” value is on record as “Soluble in water” and the pKa is given as 2.74. Moreover, in data set [8] (1 hr time point, microparticles), the “degradation (second HPLC peak) in release and extraction samples” value is reported as “no second peak detected”. For the same compound, in data set [8] (after two-day release), the “Drug X recovered from the extraction” value is approximately 35%. Also, in data set [8] (disc after 2 weeks of release, dichloromethane extraction), the “drug recovered from the discs (release & extraction)” value is given as 88-93%. In addition, in data set [8] (during the two-day release), the “Drug X released” value was approximately 50%. In addition, in [8] (in the disc), the extraction efficiency came out at 85%. For the same compound, the “total recovered of the encapsulated Drug X” value in [8] (release plus extraction) was 83%-90%.
In [1], `CC1(C)O[C@@H]2C[C@H]3[C@@H]4CCC5=CC(=O)C=C[C@]5(C)[C@@]4(F)[C@@H](O)C[C@]3(C)[C@]2(C(=O)CO)O1` [Triamcinolone acetonide, triamcinolone acetonide] registered a solubility at 48 h of 287 ± 56.9 µg/mL (≈ 661 µM). Moreover, the logP in [2] was 2.3. In addition, in data set [9], the TAA solubility was 2.1 µg/mL.
